Assay: Anticancer human tumor 997537-175-T-J1-PDC patient-derived colon adenocarcinoma cell line growth inhibition [POLQ]
Conditions: 997537-175-T-J1-PDC complex spheroid viability, combination with POLQ inhibitors; for IC50: curve of first compound; for viability, T/C: stronger effect = lower value; active = viability on the fitted dose curve at most 10% of control; inactive = the rest
Method in brief: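 Complex spheroid viability model combining PDC tumour cells with endothelial (HUVEC) and MSC stromal cells. Novobiocin, ART-558 or RP6685 were tested singly and in combination with standard and investigational anticancer drugs. Each was titrated in half-log steps from near clinical Cmax, or from 10 microM where Cmax was unknown.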

[1] = second compound 0.0316 µM, first compound 0.0316 µM
[2] = second compound 0.0316 µM, first compound 0.1 µM
[3] = second compound 0.0316 µM, first compound 0.316 µM
[4] = second compound 0.0316 µM, first compound 1 µM
[5] = second compound 0.1 µM, first compound 0.0316 µM
[6] = second compound 0.1 µM, first compound 0.1 µM
[7] = second compound 0.1 µM, first compound 0.316 µM
[8] = second compound 0.1 µM, first compound 1 µM
[9] = second compound 0.316 µM, first compound 0.0316 µM
[10] = second compound 0.316 µM, first compound 0.1 µM
[11] = second compound 0.316 µM, first compound 0.316 µM
[12] = second compound 0.316 µM, first compound 1 µM
[13] = second compound 1 µM, first compound 0.0316 µM
[14] = second compound 1 µM, first compound 0.1 µM
[15] = second compound 1 µM, first compound 0.316 µM
[16] = second compound 1 µM, first compound 1 µM
[17] = second compound 3.16 µM, first compound 0.0316 µM
[18] = second compound 3.16 µM, first compound 0.1 µM
[19] = second compound 3.16 µM, first compound 0.316 µM
[20] = second compound 3.16 µM, first compound 1 µM
[21] = second compound 10 µM, first compound 0.0316 µM
[22] = second compound 10 µM, first compound 0.1 µM
[23] = second compound 10 µM, first compound 0.316 µM
[24] = second compound 10 µM, first compound 1 µM
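Also: luminescence signal used as a surrogate for viable cells; spheroids exposed to drugs for seven days before readout.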

CCc1c2c(nc3ccc(O)cc13)-c1cc3c(c(=O)n1C2)COC(=O)[C@]3(O)CC + COC1C(OC(N)=O)C(O)C(Oc2ccc3c(O)c(NC(=O)c4ccc(O)c(CC=C(C)C)c4)c(=O)oc3c2C)OC1(C)C
18.6 nM: IC50 (second compound 3.16 µM)
inactive: viability, T/C (second compound 0.0316 µM, first compound 0.00316 µM) 73.2% | viability, T/C (second compound 0.0316 µM, first compound 0.01 µM) 79.5% | viability, T/C [1] 33.5% | viability, T/C [2] 22.7% | viability, T/C [3] 4.91% | viability, T/C [4] 4.67% | viability, T/C (second compound 0.1 µM, first compound 0.00316 µM) 72.3% | viability, T/C (second compound 0.1 µM, first compound 0.01 µM) 74.8% | viability, T/C [5] 32.9% | viability, T/C (second compound 0.316 µM, first compound 0.00316 µM) 78% | viability, T/C (second compound 0.316 µM, first compound 0.01 µM) 73% | viability, T/C [9] 33.8% | viability, T/C [10] 14.3% | viability, T/C (second compound 1 µM, first compound 0.00316 µM) 88.8% | viability, T/C (second compound 1 µM, first compound 0.01 µM) 60.1% | viability, T/C [13] 32.1% | viability, T/C [14] 19.2% | viability, T/C (second compound 3.16 µM, first compound 0.00316 µM) 88.9% | viability, T/C (second compound 3.16 µM, first compound 0.01 µM) 74% | viability, T/C [17] 29.4% | viability, T/C [18] 11.4% | viability, T/C (second compound 10 µM, first compound 0.00316 µM) 63.9% | viability, T/C (second compound 10 µM, first compound 0.01 µM) 57.9% | viability, T/C [21] 26.3% | viability, T/C [22] 15%
13.1 nM: IC50 (second compound 10 µM)
19.4 nM: IC50 (second compound 0.1 µM)
active: viability, T/C [6] 14.3% | viability, T/C [7] 7.35% | viability, T/C [8] 6.22% | viability, T/C [11] 6.7% | viability, T/C [12] 6.93% | viability, T/C [15] 6.28% | viability, T/C [16] 5.11% | viability, T/C [19] 7.04% | viability, T/C [20] 7.5% | viability, T/C [23] 6.46% | viability, T/C [24] 9.61%
19.7 nM: IC50 (second compound 0.316 µM)
15.3 nM: IC50 (second compound 1 µM)
20.3 nM: IC50 (second compound 0.0316 µM)

Nc1ccn(C2OC(CO)C(O)C2(F)F)c(=O)n1 (centres undefined) + COC1C(OC(N)=O)C(O)C(Oc2ccc3c(O)c(NC(=O)c4ccc(O)c(CC=C(C)C)c4)c(=O)oc3c2C)OC1(C)C
> 10000 nM: IC50 (second compound 0.0316 µM) | IC50 (second compound 0.1 µM) | IC50 (second compound 0.316 µM) | IC50 (second compound 1 µM) | IC50 (second compound 3.16 µM) | IC50 (second compound 10 µM)
inactive: viability, T/C [1] 95.8% | viability, T/C [2] 108% | viability, T/C [3] 79.4% | viability, T/C [4] 85.2% | viability, T/C (second compound 0.0316 µM, first compound 3.16 µM) 65.8% | viability, T/C (second compound 0.0316 µM, first compound 10 µM) 88.2% | viability, T/C [5] 108% | viability, T/C [6] 106% | viability, T/C [7] 72.2% | viability, T/C [8] 95% | viability, T/C (second compound 0.1 µM, first compound 3.16 µM) 80.6% | viability, T/C (second compound 0.1 µM, first compound 10 µM) 74.9% | viability, T/C [9] 103% | viability, T/C [10] 106% | viability, T/C [11] 88.7% | viability, T/C [12] 78.4% | viability, T/C (second compound 0.316 µM, first compound 3.16 µM) 73.9% | viability, T/C (second compound 0.316 µM, first compound 10 µM) 66.8% | viability, T/C [13] 106% | viability, T/C [14] 89.9% | viability, T/C [15] 100% | viability, T/C [16] 76.5% | viability, T/C (second compound 1 µM, first compound 3.16 µM) 63.6% | viability, T/C (second compound 1 µM, first compound 10 µM) 70.6% | viability, T/C [17] 97.9% | viability, T/C [18] 97% | viability, T/C [19] 92.5% | viability, T/C [20] 94.6% | viability, T/C (second compound 3.16 µM, first compound 3.16 µM) 71.7% | viability, T/C (second compound 3.16 µM, first compound 10 µM) 62.7% | viability, T/C [21] 84.6% | viability, T/C [22] 90.8% | viability, T/C [23] 86.5% | viability, T/C [24] 63.7% | viability, T/C (second compound 10 µM, first compound 3.16 µM) 71.6% | viability, T/C (second compound 10 µM, first compound 10 µM) 72.3%

Reference: PubChem BioAssay AID1963825 (Molecular Pharmacology Branch, DTP, NCI, 2024)
